Source: ChEMBL document CHEMBL1137911, “Synthesis and evaluation of 4-triazolylflavans as new aromatase inhibitors” (Bioorg Med Chem Lett, 2004)

Experiments:
Aromatase [1] = biological target: T1, Aromatase (Homo sapiens, UniProt P11511); experiment: In vitro inhibition of [1,2,6,7-3H]androstenedione binding to Aromatase of human placental microsomes
T1 sequence (P11511 whole entry): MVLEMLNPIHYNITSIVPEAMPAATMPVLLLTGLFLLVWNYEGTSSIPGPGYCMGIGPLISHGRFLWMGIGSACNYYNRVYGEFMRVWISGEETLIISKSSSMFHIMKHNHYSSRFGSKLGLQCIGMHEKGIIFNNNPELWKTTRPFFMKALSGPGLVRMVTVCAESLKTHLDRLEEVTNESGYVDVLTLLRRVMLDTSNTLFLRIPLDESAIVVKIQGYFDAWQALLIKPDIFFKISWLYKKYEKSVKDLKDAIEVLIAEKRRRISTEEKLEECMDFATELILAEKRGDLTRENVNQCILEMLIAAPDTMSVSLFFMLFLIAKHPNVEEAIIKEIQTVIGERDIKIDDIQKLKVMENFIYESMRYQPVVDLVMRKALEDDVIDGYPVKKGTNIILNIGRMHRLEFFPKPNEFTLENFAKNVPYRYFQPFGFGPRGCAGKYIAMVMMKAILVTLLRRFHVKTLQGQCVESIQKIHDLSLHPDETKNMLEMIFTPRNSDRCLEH

Aromatase [2] = biological target: T1, Aromatase; experiment: Relative potency for inhibition of aromatase binding compared to aminoglutethimide

SMILES | IC50 (Aromatase [1]) | Relative Potency (Aromatase [2])
Oc1ccc2c(c1)OC(c1ccccc1)CC2n1ccnc1 (stereo not drawn) | 40 nM | 126.8
COc1ccc2c(c1)OC(c1ccccc1)CC2n1cnnc1 (stereo not drawn) | 31600 nM | 0.16
Oc1ccc2c(c1)OC(c1ccccc1)CC2n1cncn1 (stereo not drawn) | 430 nM | 12.1
COc1ccc2c(c1)OC(c1ccccc1)CC2n1cncn1 (stereo not drawn) | 1400 nM | 3.7
